Experimental data published in US20240261302A1, “METHODS OF TREATING NEURODEGENERATIVE DISEASES OR CONDITIONS” (FloraScience Inc., priority 2023, published 2024).
Entries after “also recorded” stand apart in the source; their conditions may differ.

Key:
HT22 mt-GFP WT cells = experiment: Cell viability after RSL3 with/without FCCP (CyQUANT DNA-based assay, fluorescence microscopy), mt-GFP WT cells; parameters: species or system mouse
HT22 cells [1] = experiment: Oxytosis Assay (glutamate-induced cell death, MTT); format: cell-based, mouse
Protocol: Oxytosis Assay. HT22 cells were seeded at 3,000 cells/well in 96-well tissue culture plates in DMEM plus 10% FBS and 1% antibiotics. After 24 hr of plating, the cells were pretreated with different concentrations of the test compounds or a vehicle control for 1 hr followed by coincubation with 5 mM glutamate to initiate the cell death cascade. After 16 hr of treatment, cell viability was measured by the 3−(4,5-dimethylthiazol-2-yl)-2,5-diphenyltetrazolium bromide (MTT) assay. Optical absorbance was measured at 570 nm on a SpectraMax M5 microplate reader. Samples were analyzed in eight to sixteen wells per independent experiment (n=8-16). Results were presented as the percentage of the controls with vehicle alone.

BV2 microglia = experiment: Mitochondrial Membrane Potential Assay (JC-10) in BV2 cells; format: cell-based; conditions: 4 hr
Protocol: BV2 microglial cells were cultured in low glucose DMEM supplemented with GlutaMAX (Invitrogen, Cat #10567014, Carlsbad, CA), 1 mM sodium pyruvate, 10% FBS, and 1% antibiotics including penicillin and streptomycin. Cell cultures were incubated at 37° C. in a fully humidified atmosphere containing 10% CO2.
Mitochondrial Membrane Potential Assay. Cells seeded at 5,000 cells/well onto 96-well black walled plates were treated with test compounds at the desired concentrations under the culture condition described above. The mitochondrial uncoupler FCCP at 2 μM was used as a reference control. After the desired treatments for 4 hr, the cells were subjected to a JC-10 mitochondrial membrane potential assay according to the manufacturer's instruction. Fluorescence intensities (Ex/Em=490/525 nm, and Ex/Em=540/590 nm) of each well were monitored on a SpectraMax M5 microplate reader. The ratio of fluorescence intensity (590/525 nm) was used to determine the mitochondrial membrane potential (ΔΨm). Decreasing ratios indicate mitochondrial membrane depolarization. Samples were analyzed in eight to sixteen wells per independent experiment (n=8-16). Results were verified by live-cell imaging under a fluorescence microscope.

[2] = Iron (Fe^2+) Binding Assay (ferrozine method); conditions: 5 to 10 μM, compared to deferiprone 5 μM
Protocol: Iron (Fe^2+) Binding Assay. Ferrous iron binding was measured by the ferrozine method. Briefly, test samples at the desired concentrations were mixed with 5 μM ferrous sulfate (FeSO4) in 100 μL of 50 mM HEPES, pH 7.5 in a 96-well plate. After 2 min, 50 μL of 5 mM ferrozine was added and the optical absorbance at 562 nm was measured on a SpectraMax M5 microplate reader. Each sample was analyzed in eight wells per independent experiment (n=8). Iron binding capacities were presented as the percentage of the vehicle controls without (100%) or with iron (0%).

HT22 cells [3] = experiment: Reactive Oxygen Species Measurement (CellROX, MitoSOX); format: cell-based, mouse
Protocol: Reactive Oxygen Species Measurement. HT22 cells were seeded onto 96-well black walled plates at a density of 5,000 cells/well in DMEM supplemented with 10% FBS and 1% antibiotics. After the desired treatments, whole cell ROS and mitochondrial superoxide ROS were detected with CellROX Green reagent (Ex/Em=485/520 nm) and MitoSOX Red reagent (Ex/Em=510/580 nm), respectively. Experiments were performed according to the manufacturer's instructions. Fluorescence was measured on a SpectraMax M5 microplate reader. Data were normalized for total protein/well. Each condition was analyzed in sixteen wells per independent experiment (n=16). Results were presented as the percentage of the controls with vehicle alone. Results were verified by live-cell imaging under a fluorescence microscope.

HT22 cells [4] = experiment: Relative mtDNA copy number (qPCR); format: cell-based, mouse
Protocol: Quantitative Reverse Transcription PCR (qPCR) Analysis. HT22 cells were seeded onto 60 mm dishes at a density of 140,000 cells/dish in DMEM supplemented with 10% FBS and 1% antibiotics. After the desired treatments, total RNA was extracted using the RNeasy Mini Kit (Qiagen, Cat #74104, Hilden, Germany). cDNA was synthesized using SuperScript III First-Strand Synthesis System for qPCR (Invitrogen, Cat #18080051, Carlsbad, CA). Amplification was performed with TaqMan Fast Advanced Master Mix (ThermoFisher Scientific, Cat #4444556, Carlsbad, CA) using a QuantStudio 3 Real-Time PCR Systems (ThermoFisher Scientific, CA). The primer pairs were used as follows: CNR1 (Forward, 5′-[…]-3′; Reverse, 5′-[…]-3′); CNR2 (Forward, 5′-[…]-3′; Reverse, 5′-GCCGGGAGGACAGGATAAT-3′). The expression of the GAPDH gene was measured for normalization. The mouse Mitochondrial DNA Copy Number Kit was used (Detroit R&D, Cat #MCN3, Detroit, MI) according to the manufacturer's instructions. Relative fold change was calculated using the 2^(−ΔΔCt) method. Samples were analyzed in three dishes per independent experiment (n=3).

HT22 cells [5] = experiment: Seahorse XF Analysis (mitochondrial stress test) in HT22 cells; format: cell-based, mouse
Protocol: Seahorse XF Analysis. The assay procedure was previously described. Cellular oxygen consumption rates (OCR) were assayed with a XF Cell Mito Stress Test Kit using a Seahorse XFe96 Extracellular Flux Analyzer (Seahorse Bioscience, North Billerica, MA). Complete Seahorse XF DMEM assay medium was supplemented with 10 mM glucose, 1 mM pyruvate and 2 mM L-glutamine, at pH 7.4. Mitochondrial ETC inhibitors were used at the following concentrations: 1.5 μM oligomycin, 2 μM FCCP, and 0.5 μM of a 1:1 mixture of rotenone and antimycin A. Analyses were conducted using Wave software and XF Report Generators (Agilent Technologies). The sensor cartridge for the XFe analyzer was hydrated overnight at 37° C. before the experiment. OCR data were normalized for total protein/well. Each condition was analyzed in 20-40 wells per independent experiment (n=20-40).
For HT22 cells, 3,000 cells/well were seeded onto the Seahorse XFe96 plates under normal culture condition as described above. The next day, cells were pretreated with CBN at the desired concentrations for 1 hr followed by addition of RSL3 (50 nM) and coincubation for 16 hr. Immediately before the assay, the culture medium in the plates was replaced with complete Seahorse XF DMEM assay medium. The plates were incubated for 1 hr at 37° C. prior to the XF Cell Mito Stress tests according to the manufacturer's instructions.

SMILES: CCCCCc1cc(O)c2c(c1)OC(C)(C)c1ccc(C)cc1-2 [CBN, 6,6,9-Trimethyl-3-pentyl-benzo[c]chromen-1-ol]
- protection against RSL3-induced cell death, no FCCP pretreatment (HT22 mt-GFP WT cells; 16 hr): strong and equivalent protection
- protection against RSL3 after FCCP pretreatment (HT22 mt-GFP WT cells; FCCP 5 μM 24 hr, then 16 hr): protected; also recorded: protective
- cell numbers after FCCP pretreatment, co-treatment with compound (HT22 mt-GFP WT cells; FCCP 24 hr, CBN additional 16 hr): did not further change the cell numbers
- glutamate-induced morphological changes (HT22 cells [1]; 5 μM pretreatment 1 hr, then 5 mM glutamate 16 hr): effectively prevented
- EC50 (HT22 cells [1]; Mus musculus, HT-22, 16 h, read-out: EC50 against oxytosis/ferroptosis induced by 5 mM glutamate (FIG. 2G)): 1.89 µM
- decrease of ΔΨm (BV2 microglia): also observed
- Fe^2+ binding [2]: did not show significant Fe^2+ binding
- RSL3-induced ROS production at cellular and mitochondrial levels (HT22 cells [3]; 50 nM RSL3, 16 hr): suppressed
- cellular and mitochondrial ROS (redox status), compound alone (HT22 cells [3]; 5 μM, 16 hr): did not affect the redox status of cells or mitochondria
- mtDNA copy number with RSL3 (HT22 cells [4]; 50 nM RSL3, 16 hr): sustain mtDNA at the control level
- mtDNA copy number, compound alone (HT22 cells [4]; 5 μM): did not induce significant changes
- ATP production, compound alone (HT22 cells [5]; 10 μM): partially reduced ATP production
- basal and maximal mitochondrial respiration, compound alone (HT22 cells [5]; 10 μM): partially decreased both basal and maximal mitochondrial respiration
- mitochondrial respiration and ATP production with RSL3 (HT22 cells [5]; 10 μM pretreatment, RSL3 50 nM 16 hr): maintenance of mitochondrial respiration and ATP production
